Assay results: patent US8952024B2, “Herbicidal pyrimidone derivatives” (E I du Pont de Nemours and Company, priority 2009, dated 2015)

Experiments:
Experiment in all cases: Test B pre-/postemergence plant response
Format in all cases: in vivo
[1] = test system: goosegrass (Eleusine indica)
How it was run: (§1)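 Visually scored on a 0 to 100 scale after 13 to 15 days in greenhouse versus controls. Treatments were preemergence on seeded loam/sand soil and postemergence on 1- to 4-leaf plants.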

[2] = test system: lambsquarters (Chenopodium album)
How it was run: as §1

[3] = test system: soybean (Glycine max)
How it was run: as §1

[4] = test system: yellow nutsedge (Cyperus esculentus)
How it was run: as §1

[5] = test system: green foxtail (Setaria viridis)
How it was run: as §1

[6] = test system: wheat (Triticum aestivum)
How it was run: as §1

[7] = test system: large crabgrass (Digitaria sanguinalis)
How it was run: as §1

[8] = test system: velvetleaf (Abutilon theophrasti)
How it was run: as §1

[9] = test system: kochia (Kochia scoparia)
How it was run: as §1

[10] = test system: johnsongrass (Sorghum halepense)
How it was run: as §1

[11] = test system: bermudagrass (Cynodon dactylon)
How it was run: as §1

[12] = test system: woolly cupgrass (Eriochloa villosa)
How it was run: as §1

[13] = test system: ragweed (common ragweed, Ambrosia elatior)
How it was run: as §1

[14] = 31 g ai/ha, postemergence, scale 0 to 100, 0 is no effect, 100 is complete control
[15] = 62 g ai/ha, postemergence, 0 is no effect, 100 is complete control, 13 to 15 days
[16] = Postemergence, 125 g ai/ha, visual rating after 13 to 15 days, scale 0 (no effect) to 100 (complete control)
[17] = Postemergence, 250 g ai/ha, scale 0 to 100 (0 no effect, 100 complete control)

Cc1ccc(-c2ncc(C(=O)C3=C(O)CCCC3=O)c(=O)n2-c2ccccc2)cc1 [Compound 80]
Plant response rating, Goosegrass [1, 14]: 70 | Goosegrass plant response rating (0 to 100 scale) [1, 15]: 75 | Plant response rating, Goosegrass [1, 16]: 80 | Plant response rating, Goosegrass [1, 17]: 85 | Plant response rating, Lambsquarters [2, 14]: 95 | Lambsquarters plant response rating (0 to 100 scale) [2, 15]: 95 | Plant response rating, Lambsquarters [2, 16]: 98 | Plant response rating, Lambsquarters [2, 17]: 100 | Plant response rating, Soybean [3, 14]: 75 | Soybean plant response rating (0 to 100 scale) [3, 15]: 80 | Plant response rating, Soybean [3, 16]: 90 | Plant response rating, Soybean [3, 17]: 95 | Plant response rating, Nutsedge, Yellow [4, 14]: 10 | Nutsedge, Yellow plant response rating (0 to 100 scale) [4, 15]: 15 | Plant response rating, Nutsedge, Yellow [4, 16]: 55 | Plant response rating, Nutsedge, Yellow [4, 17]: 75 | Plant response rating, Foxtail, Green [5, 14]: 90 | Foxtail, Green plant response rating (0 to 100 scale) [5, 15]: 95 | Plant response rating, Foxtail, Green [5, 16]: 95 | Plant response rating, Foxtail, Green [5, 17]: 98 | Plant response rating, Wheat [6, 14]: 5 | Wheat plant response rating (0 to 100 scale) [6, 15]: 10 | Plant response rating, Wheat [6, 16]: 20 | Plant response rating, Wheat [6, 17]: 35 | Plant response rating, Crabgrass, Large [7, 14]: 75 | Crabgrass, Large plant response rating (0 to 100 scale) [7, 15]: 80 | Plant response rating, Crabgrass, Large [7, 16]: 90 | Plant response rating, Crabgrass, Large [7, 17]: 95 | Plant response rating, Velvetleaf [8, 14]: 85 | Velvetleaf plant response rating (0 to 100 scale) [8, 15]: 100 | Plant response rating, Velvetleaf [8, 16]: 100 | Plant response rating, Velvetleaf [8, 17]: 100 | Plant response rating, Kochia [9, 14]: 0 | Kochia plant response rating (0 to 100 scale) [9, 15]: 20 | Plant response rating, Kochia [9, 16]: 20 | Plant response rating, Kochia [9, 17]: 60 | Plant response rating, Johnsongrass [10, 14]: 0 | Johnsongrass plant response rating (0 to 100 scale) [10, 15]: 0 | Plant response rating, Johnsongrass [10, 16]: 10 | Plant response rating, Johnsongrass [10, 17]: 45 | Plant response rating, Bermudagrass [11, 14]: 20 | Bermudagrass plant response rating (0 to 100 scale) [11, 15]: 40 | Plant response rating, Bermudagrass [11, 16]: 45 | Plant response rating, Bermudagrass [11, 17]: 55 | Plant response rating, Cupgrass, Woolly [12, 14]: 65 | Cupgrass, Woolly plant response rating (0 to 100 scale) [12, 15]: 70 | Plant response rating, Cupgrass, Woolly [12, 16]: 70 | Plant response rating, Cupgrass, Woolly [12, 17]: 75 | Plant response rating, Ragweed [13, 14]: 50 | Ragweed plant response rating (0 to 100 scale) [13, 15]: 60 | Plant response rating, Ragweed [13, 16]: 65 | Plant response rating, Ragweed [13, 17]: 75
